The target in assay [1] is T1, c-kit (Homo sapiens, UniProt P10721).
T1 construct: MO7e (human megakaryocytic leukemia cell line) which had been arrested for 20 hr; endogenous in cells; host or cells: MO7e human megakaryocytic leukemia cell line
Nature of the assay: Inhibitory activity against c-kit autophosphorylation (MO7e cells, h-SCF). In kind it is cell-based. The following applies: for inhibition at 1 µM: Mo7e, figure within parentheses in −( ) or >1000( ), at 1000 nM; for IC50: MO7e cells, 50 ng/ml h-SCF, read-out: c-kit IC50. The gist of the method: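 MO7e human megakaryocytic leukemia cells, arrested 20 hr, treated with compound 1 hr, then stimulated with 50 ng/ml h-SCF for 5 min and lysed. Lysates captured on immobilized anti-phosphotyrosine antibody, detected with anti-c-kit primary and HRP secondary antibody; absorbance at 450 nm.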

Assay [2] addresses T2, PDGF-Ra (Homo sapiens, UniProt P16234).
T2 construct: host or cells: G-292 human osteosarcoma cells
Nature of the assay: Inhibitory activity against PDGF-Ra phosphorylation by PDGF-AA stimulation using G292. The following applies: for IC50: > means inhibition at indicated concentration not more than 50%, < and << not less than 50%, read-out: PDGF (E) IC50; for inhibition at 0.1 µM: G292, read-out: PDGF (E) inhibition (%) at 100 nM; for inhibition at 0.1 µM / PDGF (E) inhibition (%) at 100 nM: figure within parentheses in >100( ), at 100 nM. In kind it is cell-based. In a few lines:
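Phospho-PDGF-Ra ELISA: capture with PY-20 antiphosphotyrosine, detection with anti-PDGF-Ra and peroxidase secondary, read at 450 nm. Lysates came from G-292 osteosarcoma cells starved in 0.1% FBS, compound-treated 1 hr at 37° C, and stimulated with 50 ng/ml PDGF-AA for 5 min.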

T1 sequence (P10721 26-976): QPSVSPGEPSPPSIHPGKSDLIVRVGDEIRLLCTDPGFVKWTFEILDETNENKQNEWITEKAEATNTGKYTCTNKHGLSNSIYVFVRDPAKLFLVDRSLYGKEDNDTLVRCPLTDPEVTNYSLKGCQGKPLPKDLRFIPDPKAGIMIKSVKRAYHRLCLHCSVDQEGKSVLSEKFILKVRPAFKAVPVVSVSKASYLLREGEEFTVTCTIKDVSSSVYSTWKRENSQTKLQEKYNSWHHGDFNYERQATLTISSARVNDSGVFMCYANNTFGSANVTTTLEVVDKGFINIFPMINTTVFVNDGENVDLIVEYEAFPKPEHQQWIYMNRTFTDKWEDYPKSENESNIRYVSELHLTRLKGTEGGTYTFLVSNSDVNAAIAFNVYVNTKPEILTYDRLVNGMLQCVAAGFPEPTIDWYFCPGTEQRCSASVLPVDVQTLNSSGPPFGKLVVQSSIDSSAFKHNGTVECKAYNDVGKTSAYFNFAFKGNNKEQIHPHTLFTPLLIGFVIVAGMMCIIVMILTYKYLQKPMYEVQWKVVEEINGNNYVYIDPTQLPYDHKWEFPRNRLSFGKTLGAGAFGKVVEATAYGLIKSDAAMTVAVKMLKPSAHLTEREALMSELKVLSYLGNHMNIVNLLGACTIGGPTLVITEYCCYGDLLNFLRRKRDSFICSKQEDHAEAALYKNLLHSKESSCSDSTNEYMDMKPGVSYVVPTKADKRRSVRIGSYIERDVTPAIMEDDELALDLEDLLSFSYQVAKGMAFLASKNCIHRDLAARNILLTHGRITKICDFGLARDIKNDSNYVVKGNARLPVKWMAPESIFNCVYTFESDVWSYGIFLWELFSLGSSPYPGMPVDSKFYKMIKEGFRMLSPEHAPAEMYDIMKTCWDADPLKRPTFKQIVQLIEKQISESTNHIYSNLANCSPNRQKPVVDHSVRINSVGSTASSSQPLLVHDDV
T2 sequence (P16234 24-1089): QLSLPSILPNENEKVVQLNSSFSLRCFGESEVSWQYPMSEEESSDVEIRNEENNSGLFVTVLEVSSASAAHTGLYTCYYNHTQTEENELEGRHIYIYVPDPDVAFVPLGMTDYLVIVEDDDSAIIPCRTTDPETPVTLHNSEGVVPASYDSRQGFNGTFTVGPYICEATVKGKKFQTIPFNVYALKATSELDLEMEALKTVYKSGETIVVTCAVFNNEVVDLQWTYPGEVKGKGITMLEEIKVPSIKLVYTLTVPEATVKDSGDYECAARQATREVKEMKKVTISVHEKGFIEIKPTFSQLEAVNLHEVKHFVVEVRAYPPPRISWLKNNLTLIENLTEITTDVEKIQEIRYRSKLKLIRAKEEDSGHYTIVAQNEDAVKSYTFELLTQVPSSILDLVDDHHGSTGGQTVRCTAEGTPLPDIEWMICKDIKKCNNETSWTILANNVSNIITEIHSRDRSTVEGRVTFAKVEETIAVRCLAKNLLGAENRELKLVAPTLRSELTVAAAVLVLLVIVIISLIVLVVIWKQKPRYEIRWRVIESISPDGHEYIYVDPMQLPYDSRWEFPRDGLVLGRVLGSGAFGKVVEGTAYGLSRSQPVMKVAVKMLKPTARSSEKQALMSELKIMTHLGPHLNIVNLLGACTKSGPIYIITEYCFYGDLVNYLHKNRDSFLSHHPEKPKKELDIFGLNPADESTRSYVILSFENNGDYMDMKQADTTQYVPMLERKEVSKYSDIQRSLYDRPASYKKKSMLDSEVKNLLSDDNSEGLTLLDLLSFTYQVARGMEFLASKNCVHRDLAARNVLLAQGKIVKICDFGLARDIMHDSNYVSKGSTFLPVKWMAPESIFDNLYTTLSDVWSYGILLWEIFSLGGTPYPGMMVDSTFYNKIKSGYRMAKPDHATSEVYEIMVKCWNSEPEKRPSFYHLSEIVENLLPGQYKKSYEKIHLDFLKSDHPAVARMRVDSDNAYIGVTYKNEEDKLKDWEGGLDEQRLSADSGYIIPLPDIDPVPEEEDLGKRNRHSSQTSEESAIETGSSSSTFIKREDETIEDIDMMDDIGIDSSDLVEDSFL

Turning to `COc1cc2ncnc(Oc3ccc(NC(=O)OC4CCCCC4)c([N+](=O)[O-])c3)c2cc1OC` [Example 503, Cyclohexyl N-{4-[(6,7-dimethoxy-4-quinazolinyl)oxy]-2-nitrophenyl}carbamate], the inhibition at 1 µM in assay [1] stood at 36%. Further, the concentration for half-maximal inhibition (IC50) in assay [2] came to 87 nM.

Take `COc1cc2ncnc(Oc3ccc(NC(=O)OCc4ccccc4Cl)c([N+](=O)[O-])c3)c2cc1OC` [Example 504, 2-Chlorobenzyl N-{4-[(6,7-dimethoxy-4-quinazolinyl)oxy]-2-nitrophenyl}carbamate]: the inhibition at 1 µM in assay [1] was found to be 42%. The IC50 in assay [2] worked out at 46 nM.

For `COc1cc2ncnc(Oc3ccc(NC(=O)OCc4ccccc4C)c([N+](=O)[O-])c3)c2cc1OC` [Example 505, 2-Methylbenzyl N-{4-[(6,7-dimethoxy-4-quinazolinyl)oxy]-2-nitrophenyl}carbamate], the inhibition at 1 µM in assay [1] was determined as 25%. Besides, the IC50 in assay [2] amounted to 53 nM.

As to `COc1cc2ncnc(Oc3ccc(NC(=O)OCC4CCCCCC4)c([N+](=O)[O-])c3)c2cc1OC` [Example 506, Cycloheptylmethyl N-{4-[(6,7-dimethoxy-4-quinazolinyl)oxy]-2-nitrophenyl}carbamate], the IC50 was determined as 369 nM in assay [1] and 74 nM in assay [2].

Take `COc1cc2ncnc(Oc3ccc(NC(=O)OC4CCCCCC4)c([N+](=O)[O-])c3)c2cc1OC` [Example 507, Cycloheptyl N-{4-[(6,7-dimethoxy-4-quinazolinyl)oxy]-2-nitrophenyl}carbamate]: the IC50 in assay [1] turned out to be 787 nM; in assay [2], 44 nM.

Take `CCCCCCOC(=O)Nc1ccc(Oc2ncnc3cc(OC)c(OC)cc23)cc1[N+](=O)[O-]` [Example 509, Hexyl N-{4-[(6,7-dimethoxy-4-quinazolinyl)oxy]-2-nitrophenyl}carbamate]: the IC50 amounted to 164 nM in assay [1] and 26 nM in assay [2].

On to `C#CCC(CC)OC(=O)Nc1ccc(Oc2ncnc3cc(OC)c(OC)cc23)cc1[N+](=O)[O-]` (stereo not shown) [Example 510, 1-Ethyl-3-butynyl N-{4-[(6,7-dimethoxy-4-quinazolinyl)oxy]-2-nitrophenyl}carbamate], for which the inhibition at 1 µM in assay [1] is 17%. For the same compound, in assay [2], the concentration for half-maximal inhibition (IC50) is above 100 nM and the inhibition at 0.1 µM stood at 3%.

For `CCN(CC)CCNC(=S)Nc1ccc(Oc2ccnc3cc(OC)c(OC)cc23)c(C)c1C` [Example 511, N-{4-[(6,7-Dimethoxy-4-quinolyl)oxy]-2,3-dimethylphenyl}-N′-(2-diethylaminoethyl)thiourea], the IC50 in assay [1] came to 663 nM; in assay [2] it was 19 nM.

`COc1cc2nccc(Oc3ccc(NC(=S)NC4CCN(Cc5ccccc5)CC4)c(C)c3C)c2cc1OC` [Example 513, N-{4-[(6,7-Dimethoxy-4-quinolyl)oxy]-2,3-dimethylphenyl}-N′-[4-(N-benzyl)piperidinyl]thiourea]: the IC50 in assay [1] amounted to 720 nM. For the same compound, in assay [2], the half-inhibitory concentration (IC50) is above 100 nM and the “PDGF (E) inhibition (%) at 100 nM” value amounted to 28%.

Take `COc1cc2nccc(Oc3cc(C)c(NC(=S)NCCN4CCCCC4)cc3C)c2cc1OC` [Example 514]: in assay [1], the inhibition at 1 µM is 29%. In assay [2], the IC50 was above 100 nM and the inhibition at 0.1 µM was found to be 31%.

`COc1cc2nccc(Oc3cc(C)c(NC(=S)NCCNC(C)=O)cc3C)c2cc1OC` [Example 515, N-{4-[(6,7-Dimethoxy-4-quinolyl)oxy]-2,5-dimethylphenyl}-N′-(2-acetamidoethyl)thiourea]: the inhibition at 1 µM in assay [1] was 21%. Also, in assay [2], the IC50 was above 100 nM and the inhibition at 0.1 µM is 32%.

`COc1cc2ncnc(Oc3ccc(NC(=S)NCCN4CCCCC4)cc3)c2cc1OC` [Example 517, N-{4-[(6,7-Dimethoxy-4-quinazolinyl)oxy]phenyl}-N′-[2-(1-piperidinyl)ethyl]thiourea]: the inhibition at 1 µM in assay [1] was 33%. For the same compound, in assay [2], the concentration for half-maximal inhibition (IC50) worked out at 38 nM.

Turning to `COc1cc2ncnc(Oc3ccc(NC(=S)NN4CCCCC4)cc3)c2cc1OC` [Example 524, N-{4-[(6,7-Dimethoxy-4-quinazolinyl)oxy]phenyl}-N′-(1-piperidinyl)thiourea], the inhibition at 1 µM in assay [1] was 21%. Moreover, in assay [2], the IC50 is above 100 nM and the inhibition at 0.1 µM turned out to be 21%.

In the case of `COc1cc2ncnc(Oc3ccc(NC(=S)NCCCN4CCCC4=O)cc3)c2cc1OC` [Example 525, N-{4-[(6,7-Dimethoxy-4-quinazolinyl)oxy]phenyl}-N′-[3-(2-oxotetrahydro-1H-1-pyrrolyl)-propyl]thiourea], in assay [1], the inhibition at 1 µM came out at 41%. Moreover, the IC50 in assay [2] came to 79 nM.

Turning to `COc1cc2ncnc(Oc3ccc(NC(=S)NCCCn4ccnc4)cc3)c2cc1OC` [Example 526, N-{4-[(6,7-Dimethoxy-4-quinazolinyl)oxy]phenyl}-N′-[3-(1-imidazoyl)propyl]thiourea], the results for the IC50 in assay [1] and in assay [2] were 731 nM and above 100 nM, respectively. The inhibition at 0.1 µM in assay [2] is 46%.

Turning to `COc1cc2ncnc(Oc3ccc(NC(=S)NCCN4CCOCC4)cc3)c2cc1OC` [Example 527, N-{4-[(6,7-Dimethoxy-4-quinazolinyl)oxy]phenyl}-N′-[2-(1-morpholinyl)ethyl]thiourea], the values for the 50% inhibitory concentration (IC50) in assay [1] and in assay [2] were 875 nM and 65 nM, respectively.

For the compound `CCN(CCNC(=S)Nc1ccc(Oc2ncnc3cc(OC)c(OC)cc23)cc1)c1ccccc1C` [Example 528], the concentration for half-maximal inhibition (IC50) turned out to be 343 nM in assay [1] and 33 nM in assay [2].

Take `COc1cc2ncnc(Oc3ccc(NC(=S)NCCN(C)C)cc3)c2cc1OC` [Example 529, N-{4-[(6,7-Dimethoxy-4-quinazolinyl)oxy]phenyl}-N′-(2-dimethylaminoethyl) thiourea]: the inhibition at 1 µM in assay [1] stood at 8%. Further, in assay [2], the concentration for half-maximal inhibition (IC50) was above 100 nM and the inhibition at 0.1 µM worked out at 38%.

Turning to `COc1cc2ncnc(Oc3ccc(NC(=S)NCCN4CCCC4)cc3)c2cc1OC` [Example 530, N-{4-[(6,7-Dimethoxy-4-quinazolinyl)oxy]phenyl}-N′-[2-(1-pyrrolidyl)ethyl]thiourea], the inhibition at 1 µM in assay [1] was found to be 34%. Moreover, in assay [2], the IC50 was above 100 nM and the inhibition at 0.1 µM worked out at 45%.

As for `CCCCN(CCCC)C(C)CNC(=S)Nc1ccc(Oc2ncnc3cc(OC)c(OC)cc23)cc1` (stereo not shown) [Example 532, N-{4-[(6,7-Dimethoxy-4-quinazolinyl)oxy]phenyl}-N′-(2-dibutylaminopropyl)thiourea], the IC50 in assay [1] amounted to 752 nM. In addition, in assay [2], the half-inhibitory concentration (IC50) was above 100 nM and the inhibition at 0.1 µM amounted to 44%.

For `COc1cc2ncnc(Oc3ccc(NC(=S)NCCCN4CCOCC4)cc3)c2cc1OC` [Example 533, N-{4-[(6,7-Dimethoxy-4-quinazolinyl)oxy]phenyl}-N′-[3-(1-morpholino)propyl]thiourea], the IC50 was found to be 623 nM in assay [1] and 64 nM in assay [2].

For `COc1cc2ncnc(Oc3ccc(NC(=S)NCCCN4CCCCC4C)cc3)c2cc1OC` (stereo not shown) [Example 534, N-{4-[(6,7-Dimethoxy-4-quinazolinyl)oxy]phenyl}-N′-{3-[1-(2-methylpiperidinyl)]propyl}thiourea], the inhibition at 1 µM in assay [1] amounted to 35%. Besides, in assay [2], the 50% inhibitory concentration (IC50) stood at 51 nM.

As to `COc1cc2ncnc(Oc3ccc(NC(=S)NCCN(C(C)C)C(C)C)cc3)c2cc1OC` [Example 535, N-{4-[(6,7-Dimethoxy-4-quinazolinyl)oxy]phenyl}-N′-(2-diisopropylaminoethyl)thiourea], in assay [1], the inhibition at 1 µM was 27%. The half-inhibitory concentration (IC50) in assay [2] is 32 nM.

As for `COc1cc2ncnc(Oc3ccc(NC(=S)NCCCN4CCCC4)cc3)c2cc1OC` [Example 537, N-{4-[(6,7-Dimethoxy-4-quinazolinyl)oxy]phenyl}-N′-[3-(1-pyrrolidinyl)propyl]thiourea], the inhibition at 1 µM in assay [1] came out at 34%. Moreover, in assay [2], the IC50 is above 100 nM and the inhibition at 0.1 µM came to 34%.

For the compound `COc1cc2nccc(Oc3cc(C)c(NC(=S)NCCN(C)C)cc3C)c2cc1OC` [Example 538, N-{4-[(6,7-Dimethoxy-4-quinolyl)oxy]-2,5-dimethylphenyl}-N′-(2-dimethylaminoethyl)thiourea], the IC50 in assay [1] was 768 nM. In addition, in assay [2], the 50% inhibitory concentration (IC50) was above 100 nM and the inhibition at 0.1 µM was 22%.

With `COc1cc2nccc(Oc3cc(C)c(NC(=S)NCCCn4ccnc4)cc3C)c2cc1OC` [Example 539], the concentration for half-maximal inhibition (IC50) in assay [1] stood at 415 nM. For the same compound, in assay [2], the half-inhibitory concentration (IC50) was above 100 nM and the “PDGF (E) inhibition (%) at 100 nM” value was 45%.

As to `CCN(CCNC(=S)Nc1cc(C)c(Oc2ccnc3cc(OC)c(OC)cc23)cc1C)c1ccccc1C` [Example 540, N-{4-[(6,7-Dimethoxy-4-quinolyl)oxy]-2,5-dimethylphenyl}-N′-{2-[N-ethyl-N-(o-tolyl)amino]-ethyl}thiourea], the half-maximal inhibitory concentration (IC50) in assay [1] was determined as 447 nM; in assay [2], 48 nM.

For `COc1cc2nccc(Oc3cc(C)c(NC(=S)NCCN4CCCC4)cc3C)c2cc1OC` [Example 541, N-{4-[(6,7-Dimethoxy-4-quinolyl)oxy]-2,5-dimethylphenyl}-N′-[2-(1-pyrrolidinyl)ethyl]thiourea], the IC50 in assay [1] was found to be 794 nM; in assay [2], 70 nM.

In the case of `COc1cc2nccc(Oc3ccc(NC(=S)NCCN(C)C)c(C)c3C)c2cc1OC` [Example 542, N-{4-[(6,7-Dimethoxy-4-quinolyl)oxy]-2,3-dimethylphenyl}-N′-(2-dimethylaminoethyl)thiourea], in assay [1], the half-inhibitory concentration (IC50) worked out at 442 nM. Moreover, in assay [2], the half-inhibitory concentration (IC50) was above 100 nM and the inhibition at 0.1 µM is 45%.

`COc1cc2nccc(Oc3ccc(NC(=S)NCCCn4ccnc4)c(C)c3C)c2cc1OC` [Example 543]: the concentration for half-maximal inhibition (IC50) in assay [1] was 328 nM; in assay [2], 54 nM.
